biological target: T1, human NK1 receptor (Homo sapiens, UniProt P25103); assay: Affinity for the NK1 receptor, [3H]substance P displacement binding assay; conditions: affinity to the NK-1 receptor; human NK1 receptors in CHO cells; [3H]substance P 0.6 nM; 60 min at room temperature
T1 construct: expressed in transfected cells; host or cells: CHO cells infected using the Semliki virus expression system; membrane suspension
Description: The affinity of test compounds for the NK1 receptor was evaluated at human NK1 receptors in CHO cells infected with the human NK1 receptor (using the Semliki virus expression system) and radiolabelled with [^3H]substance P (final concentration 0.6 nM). Binding assays were performed in HEPES buffer (50 mM, pH 7.4) containing BSA (0.04%) leupeptin (8 μg/ml), MnCl2 (3 mM) and phosphoramidon (2 μM). Binding assays consisted of 250 μl of membrane suspension (1.25×10^5 cells/assay tube), […] of displacing agent and 125 μl of [^3H]substance P. Displacement curves were determined with at least seven concentrations of the compound. The assay tubes were incubated for 60 min at room temperature after which time the tube contents were rapidly filtered under vacuum through GF/C filters presoaked for 60 min with PEI (0.3%) with 2×2 ml washes of HEPES buffer (50 mM, pH 7.4). The radioactivity retained on the filters was measured by scintillation counting. All assays were performed in triplicate in at least 2 separate experiments.

T1 sequence (P25103 whole entry): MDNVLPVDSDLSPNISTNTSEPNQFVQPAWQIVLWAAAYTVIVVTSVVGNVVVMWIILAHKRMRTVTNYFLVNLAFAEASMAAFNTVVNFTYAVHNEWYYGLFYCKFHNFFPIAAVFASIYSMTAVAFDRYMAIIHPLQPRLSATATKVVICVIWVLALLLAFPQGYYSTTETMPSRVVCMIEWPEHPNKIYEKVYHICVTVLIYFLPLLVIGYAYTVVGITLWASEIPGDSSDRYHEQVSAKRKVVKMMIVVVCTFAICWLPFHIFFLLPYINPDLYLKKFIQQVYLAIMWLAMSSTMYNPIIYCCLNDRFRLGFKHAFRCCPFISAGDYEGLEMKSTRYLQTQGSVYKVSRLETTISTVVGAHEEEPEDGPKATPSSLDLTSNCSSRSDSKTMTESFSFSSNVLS

Row | Molecule | Ki [nM] | pKi
1 | Cc1ccccc1Oc1nc(OCCN2CCOCC2)ncc1N(C)C(=O)C(C)(C)c1cc(C(F)(F)F)cc(C(F)(F)F)c1 [Example 52, 2-(3,5-Bis-trifluoromethyl-phenyl)-N-methyl-N-[2-(2-morpholin-4-yl-ethoxy)-4-o-tolyloxy-pyrimidin-5-yl]-isobutyramide] | 0.794 | –
2 | CSc1ncc(C(=O)N(C)Cc2cc(C(F)(F)F)cc(C(F)(F)F)c2)c(Oc2ccccc2C)n1 [Example 1, 2-Methylsulfanyl-4-o-tolyloxy-pyrimidine-5-carboxylic acid (3,5-bis-trifluoromethyl-benzyl)-methyl-amide] | 41.7 | –
3 | Cc1ccccc1Oc1nc(OCCN2CCOCC2)ncc1C(=O)N(C)Cc1cc(C(F)(F)F)cc(C(F)(F)F)c1 [Example 7, 2-(2-Morpholin-4-yl-ethoxy)-4-o-tolyloxy-pyrimidine-5-carboxylic acid (3,5-bis-trifluoromethyl-benzyl)-methyl-amide] | 4.68 | –
4 | CN(C)CCCOc1ncc(N(C)C(=O)C(C)(C)c2cc(C(F)(F)F)cc(C(F)(F)F)c2)c(Oc2ccc(F)cc2)n1 [Example 63, 2-(3,5-Bis-trifluoromethyl-phenyl)-N-[2-(3-dimethylamino-propoxy)-4-(4-fluoro-phenoxy)-pyrimidin-5-yl]-N-methyl-isobutyramide] | 9.55 | –
5 | Cc1ccccc1Oc1nc(N2CCN(C)CC2)ncc1N(C)C(=O)C(C)(C)c1cc(C(F)(F)F)cc(C(F)(F)F)c1 [Example 49, 2-(3,5-Bis-trifluoromethyl-phenyl)-N-methyl-N-[2-(4-methyl-piperazin-1-yl)-4-o-tolyloxy-pyrimidin-5-yl]-isobutyramide] | 0.912 | –
6 | Cc1ccccc1Oc1nc(-c2ccccc2)ncc1N(C)C(=O)C(C)(C)c1cc(C(F)(F)F)cc(C(F)(F)F)c1 [Example 73, 2-(3,5-Bis-trifluoromethyl-phenyl)-N-methyl-N-(2-phenyl-4-o-tolyloxy-pyrimidin-5-yl)-isobutyramide] | 32.4 | –
7 | Cc1ccccc1Oc1nc(N2CCN(C)CC2)ncc1C(=O)NCc1cc(Cl)cc(Cl)c1 [Example 19, 2-(4-Methyl-piperazin-1-yl)-4-o-tolyloxy-pyrimidine-5-carboxylic acid 3,5-dichloro-benzylamide] | 195 | –
8 | Cc1cc(C)cc(CN(C)C(=O)c2cnc(N3CCN(C)CC3)nc2Oc2ccccc2C)c1 [Example 15, 2-(4-Methyl-piperazin-1-yl)-4-o-tolyloxy-pyrimidine-5-carboxylic acid (3,5-dimethyl-benzyl)-methyl-amide] | 28.2 | –
9 | CSc1ncc(C(=O)N(C)Cc2cc(C(F)(F)F)cc(C(F)(F)F)c2)c(Oc2ccccc2)n1 [Example 23, 2-Methylsulfanyl-4-phenoxy-pyrimidine-5-carboxylic acid (3,5-bis-trifluoromethyl-benzyl)-methyl-amide] | 97.7 | –

Second part, the molecule after the results:

Row | Ki [nM] | pKi | Molecule
10 | 170 | – | COc1cc(CN(C)C(=O)c2cnc(N3CCN(C)CC3)nc2Oc2ccccc2C)cc(OC)c1 [Example 11, 2-(4-Methyl-piperazin-1-yl)-4-o-tolyloxy-pyrimidine-5-carboxylic acid (3,5-dimethoxy-benzyl)-methyl-amide]
11 | 16.2 | – | Cc1ccccc1Oc1nc(-c2ccncc2)ncc1C(=O)N(C)Cc1cc(C(F)(F)F)cc(C(F)(F)F)c1 [Example 39, 2-Pyridin-4-yl-4-o-tolyloxy-pyrimidine-5-carboxylic acid (3,5-bis-trifluoromethyl-benzyl)-methyl-amide]
12 | – | 6.50 | 4-(2-Methoxy-phenoxy)-2-(4-methyl-piperazin-1-yl)-pyrimidine-5-carboxylic acid (3,5-bis-trifluoromethyl-benzyl)-methyl-amide [Example 29]
13 | 20 | – | Cc1ccccc1Oc1nc(N2CCSCC2)ncc1C(=O)N(C)Cc1cc(C(F)(F)F)cc(C(F)(F)F)c1 [Example 44, 2-Thiomorpholin-4-yl-4-o-tolyloxy-pyrimidine-5-carboxylic acid (3,5-bis-trifluoromethyl-benzyl)-methyl-amide]
14 | 2.88 | – | Cc1ccccc1Oc1nc(N2CCN(C)CC2)ncc1C(=O)N(C)Cc1cc(C(F)(F)F)cc(C(F)(F)F)c1 [Example 4, 2-(4-Methyl-piperazin-1-yl)-4-o-tolyloxy-pyrimidine-5-carboxylic acid (3,5-bis-trifluoromethyl-benzyl)-methyl-amide]

Reference: US6787539B2, “2,4,5,-trisubstituted pyrimidine derivatives” (Hoffmann-La Roche Inc., priority 2000, dated 2004)
